The text below walks through data of patent US12492173B2, “Herbicidal substituted N-tetrazolyl aryl carboxamides” (Bayer Aktiengesellschaft, priority 2019, dated 2025).

The test system of one assay is Pharbitis purpurea. As to the kind of experiment: Post-emergence herbicidal action, PHBPU. Type of assay: in vivo. The settings on record: post-emergence, dosage 80 g/ha. Put shortly:
(§1)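 Greenhouse weeds grown in sandy loam were sprayed at the one-leaf stage, 2–3 weeks after sowing, with WP or EC formulations at 600–800 l/ha water plus 0.2% wetting agent. Damage scored visually about 3 weeks later, in percent against untreated controls (100% = plants dead).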
Turning to `CSc1c(C(=O)Nc2nnnn2C)ccc(C(F)(F)F)c1C[S+](C)[O-]` (stereo not shown) [Example 1-162], the “herbicidal action PHBPU” value stood at 100%.
Consider `CCn1nnnc1NC(=O)c1ccc(S(C)(=O)=O)c(CS(C)(=O)=O)c1Cl` [Example 2-280], for which the “Herbicidal action against PHBPU” value is 90.
Take `CCn1nnnc1NC(=O)c1ccc(C(F)F)c(CS(C)(=O)=O)c1Cl` [Example 2-322]: the “herbicidal action PHBPU” value is reported as 90%.
Same read-out and setting: next, `CCn1nnnc1NC(=O)c1ccc(C(F)(F)F)c(CSC)c1Cl` [Example 2-296]: 90%; `COCCSCc1c(C(F)(F)F)ccc(C(=O)Nc2nnnn2C)c1Cl` [Example 1-305]: 100%; `CCn1nnnc1NC(=O)c1ccc(C(F)(F)F)c(CS(=O)(=O)CC)c1Br` [Example 2-385]: 80%.
The same measure, in the same setting: next, `Cn1nnnc1NC(=O)c1ccc(C(F)(F)F)c(CSCC2CC2)c1Cl` [Example 1-314]: 100%.
For `CCn1nnnc1NC(=O)c1ccc(C(F)(F)F)c(C[S+](C)[O-])c1Cl` (stereo not shown) [Example 2-297], the “herbicidal action PHBPU” value is given as 100%.
With `CCSCc1c(C(F)(F)F)ccc(C(=O)Nc2nnnn2CC)c1Cl` [Example 2-299], the “herbicidal action PHBPU” value amounted to 90%.
With `Cn1nnnc1NC(=O)c1ccc(C(F)(F)F)c(CSC2CC2)c1Cl` [Example 1-302], the “herbicidal action PHBPU” value is on record as 100%.
For `CCSCc1c(C(F)F)ccc(C(=O)Nc2nnnn2CC)c1Cl` [Example 2-323], the “herbicidal action PHBPU” value is given as 90%.
Consider `CSCc1c(I)ccc(C(=O)Nc2nnnn2C)c1Cl` [Example 1-362], for which the “herbicidal action PHBPU” value is recorded as 100%.

The subject of the next assay is Amaranthus retroflexus. As to the kind of experiment: Post-emergence herbicidal action, AMARE. Type of assay: in vivo. Also noted: key: % herbicidal action vs untreated; 100 = plants died, 0 = like control. The settings on record: comparative experiment, post-emergence, 5 g of a.i./ha. The essentials: as §1
Take `CSCc1c(I)ccc(C(=O)Nc2nnnn2C)c1Cl` [Example 1-362]: the “Herbicidal action against AMARE” value was 100.

The same assay, now with this note: post-emergence, dosage 80 g/ha.
For the compound `CSc1c(C(=O)Nc2nnnn2C)ccc(C(F)(F)F)c1C[S+](C)[O-]` (stereo not shown) [Example 1-162], the “herbicidal action AMARE” value is recorded as 100%.
Regarding `CCn1nnnc1NC(=O)c1ccc(S(C)(=O)=O)c(CS(C)(=O)=O)c1Cl` [Example 2-280], the “Herbicidal action against AMARE” value turned out to be 90.
Consider `CCn1nnnc1NC(=O)c1ccc(C(F)F)c(CS(C)(=O)=O)c1Cl` [Example 2-322], for which the “herbicidal action AMARE” value came to 80%.
Regarding `CCn1nnnc1NC(=O)c1ccc(C(F)(F)F)c(CSC)c1Cl` [Example 2-296], the “herbicidal action AMARE” value is 100%.
As to `COCCSCc1c(C(F)(F)F)ccc(C(=O)Nc2nnnn2C)c1Cl` [Example 1-305], the “herbicidal action AMARE” value was 100%.
With `CCn1nnnc1NC(=O)c1ccc(C(F)(F)F)c(CS(=O)(=O)CC)c1Br` [Example 2-385], the “herbicidal action AMARE” value was 90%.
On the same count and under the same terms, the figure for `Cn1nnnc1NC(=O)c1ccc(C(F)(F)F)c(CSCC2CC2)c1Cl` [Example 1-314] is 100%; for `CCn1nnnc1NC(=O)c1ccc(C(F)(F)F)c(C[S+](C)[O-])c1Cl` (stereo not shown) [Example 2-297] it is 100%.
For the compound `CCSCc1c(C(F)(F)F)ccc(C(=O)Nc2nnnn2CC)c1Cl` [Example 2-299], the “herbicidal action AMARE” value is 90%.
Turning to `Cn1nnnc1NC(=O)c1ccc(C(F)(F)F)c(CSC2CC2)c1Cl` [Example 1-302], the “herbicidal action AMARE” value came out at 100%.
Same read-out and setting: next, `CCSCc1c(C(F)F)ccc(C(=O)Nc2nnnn2CC)c1Cl` [Example 2-323]: 80%; `CSCc1c(I)ccc(C(=O)Nc2nnnn2C)c1Cl` [Example 1-362]: 100%.

The next assay concerns Viola tricolor. As to the kind of experiment: Post-emergence herbicidal action, VIOTR. Type of assay: in vivo. Also noted: key: % herbicidal action vs untreated; 100 = plants died, 0 = like control. The settings on record: post-emergence, dosage 80 g/ha. Put shortly: as §1
With `CSc1c(C(=O)Nc2nnnn2C)ccc(C(F)(F)F)c1C[S+](C)[O-]` (stereo not shown) [Example 1-162], the “herbicidal action VIOTR” value was found to be 100%.
With `CCn1nnnc1NC(=O)c1ccc(S(C)(=O)=O)c(CS(C)(=O)=O)c1Cl` [Example 2-280], the “Herbicidal action against VIOTR” value came out at 90.
In the case of `CCn1nnnc1NC(=O)c1ccc(C(F)F)c(CS(C)(=O)=O)c1Cl` [Example 2-322], the “herbicidal action VIOTR” value came out at 100%.
For `CCn1nnnc1NC(=O)c1ccc(C(F)(F)F)c(CSC)c1Cl` [Example 2-296], the “herbicidal action VIOTR” value is 100%.
The same measure, in the same setting: next, `COCCSCc1c(C(F)(F)F)ccc(C(=O)Nc2nnnn2C)c1Cl` [Example 1-305]: 100%; `CCn1nnnc1NC(=O)c1ccc(C(F)(F)F)c(CS(=O)(=O)CC)c1Br` [Example 2-385]: 100%; `Cn1nnnc1NC(=O)c1ccc(C(F)(F)F)c(CSCC2CC2)c1Cl` [Example 1-314]: 100%.
Consider `CCn1nnnc1NC(=O)c1ccc(C(F)(F)F)c(C[S+](C)[O-])c1Cl` (stereo not shown) [Example 2-297], for which the “herbicidal action VIOTR” value is 100%.
`CCSCc1c(C(F)(F)F)ccc(C(=O)Nc2nnnn2CC)c1Cl` [Example 2-299]: the “herbicidal action VIOTR” value is reported as 100%.
As for `Cn1nnnc1NC(=O)c1ccc(C(F)(F)F)c(CSC2CC2)c1Cl` [Example 1-302], the “herbicidal action VIOTR” value was 100%.
On to `CCSCc1c(C(F)F)ccc(C(=O)Nc2nnnn2CC)c1Cl` [Example 2-323], for which the “herbicidal action VIOTR” value is 100%.
For the compound `CSCc1c(I)ccc(C(=O)Nc2nnnn2C)c1Cl` [Example 1-362], the “herbicidal action VIOTR” value came to 100%.

The test system of a further assay is Viola tricolor. As to the kind of experiment: Pre-emergence herbicidal action, VIOTR. Type of assay: in vivo. The settings on record: dosage 320 g/ha. Put shortly:
(§2)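 Greenhouse pre-emergence test: formulated compound (WP or EC) applied in water to the soil covering sown seeds, 600–800 l/ha, 0.2% wetting agent. Scored visually in percent at 3 weeks versus untreated plants.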
For the compound `CCn1nnnc1NC(=O)c1ccc(S(C)(=O)=O)c(CS(C)(=O)=O)c1Cl` [Example 2-280], the “herbicidal action VIOTR” value came out at 90%.

The same assay, now with this note: dosage 320 g/ha, scored visually after 3 weeks vs untreated controls (100% = plants have died).
Consider `CSc1c(C(=O)Nc2nnnn2C)ccc(C(F)(F)F)c1C[S+](C)[O-]` (stereo not shown) [Example 1-162], for which the “herbicidal activity VIOTR” value was 100%.
Still for that read-out and setting: next, `CCn1nnnc1NC(=O)c1ccc(C(F)F)c(CS(C)(=O)=O)c1Cl` [Example 2-322]: 100%.
For `CCn1nnnc1NC(=O)c1ccc(C(F)(F)F)c(CSC)c1Cl` [Example 2-296], the “herbicidal activity VIOTR” value is on record as 100%.
On to `COCCSCc1c(C(F)(F)F)ccc(C(=O)Nc2nnnn2C)c1Cl` [Example 1-305], for which the “herbicidal activity VIOTR” value amounted to 100%.
As to `CCn1nnnc1NC(=O)c1ccc(C(F)(F)F)c(CS(=O)(=O)CC)c1Br` [Example 2-385], the “herbicidal activity VIOTR” value is 100%.
Still for that read-out and setting: the figure for `Cn1nnnc1NC(=O)c1ccc(C(F)(F)F)c(CSCC2CC2)c1Cl` [Example 1-314] is 100%; for `CCn1nnnc1NC(=O)c1ccc(C(F)(F)F)c(C[S+](C)[O-])c1Cl` (stereo not shown) [Example 2-297] it is 100%; for `CCSCc1c(C(F)(F)F)ccc(C(=O)Nc2nnnn2CC)c1Cl` [Example 2-299] it is 100%.
Consider `Cn1nnnc1NC(=O)c1ccc(C(F)(F)F)c(CSC2CC2)c1Cl` [Example 1-302], for which the “herbicidal activity VIOTR” value amounted to 100%.
With `CCSCc1c(C(F)F)ccc(C(=O)Nc2nnnn2CC)c1Cl` [Example 2-323], the “herbicidal activity VIOTR” value came to 100%.
Take `CSCc1c(I)ccc(C(=O)Nc2nnnn2C)c1Cl` [Example 1-362]: the “herbicidal activity VIOTR” value was found to be 100%.

In a further assay the test system is Echinochloa crus-galli. As to the kind of experiment: Pre-emergence herbicidal action, ECHCG. Type of assay: in vivo. Also noted: key to Herbicidal action against ECHCG: % activity: 100 = plants have died, 0 = like control plants. The settings on record: comparative experiment, 20 g of a.i./ha. Put shortly: as §2
With `CSc1c(C(=O)Nc2nnnn2C)ccc(C(F)(F)F)c1C[S+](C)[O-]` (stereo not shown) [Example 1-162], the “Herbicidal action against ECHCG” value amounted to 90.
`CSCc1c(I)ccc(C(=O)Nc2nnnn2C)c1Cl` [Example 1-362]: the “Herbicidal action against ECHCG” value is reported as 80.

The assay is the same for the next values; noted with them: dosage 320 g/ha.
On to `CCn1nnnc1NC(=O)c1ccc(S(C)(=O)=O)c(CS(C)(=O)=O)c1Cl` [Example 2-280], for which the “herbicidal action ECHCG” value stood at 100%.

The same assay, now with this note: dosage 320 g/ha, scored visually after 3 weeks vs untreated controls (100% = plants have died).
For the compound `CSc1c(C(=O)Nc2nnnn2C)ccc(C(F)(F)F)c1C[S+](C)[O-]` (stereo not shown) [Example 1-162], the “herbicidal activity ECHCG” value is on record as 100%.
`CCn1nnnc1NC(=O)c1ccc(C(F)F)c(CS(C)(=O)=O)c1Cl` [Example 2-322]: the “herbicidal activity ECHCG” value is recorded as 100%.
Turning to `CCn1nnnc1NC(=O)c1ccc(C(F)(F)F)c(CSC)c1Cl` [Example 2-296], the “herbicidal activity ECHCG” value amounted to 100%.
On to `COCCSCc1c(C(F)(F)F)ccc(C(=O)Nc2nnnn2C)c1Cl` [Example 1-305], for which the “herbicidal activity ECHCG” value was determined as 100%.
Take `CCn1nnnc1NC(=O)c1ccc(C(F)(F)F)c(CS(=O)(=O)CC)c1Br` [Example 2-385]: the “herbicidal activity ECHCG” value is 100%.
Still for that read-out and setting: next, `Cn1nnnc1NC(=O)c1ccc(C(F)(F)F)c(CSCC2CC2)c1Cl` [Example 1-314]: 100%; `CCn1nnnc1NC(=O)c1ccc(C(F)(F)F)c(C[S+](C)[O-])c1Cl` (stereo not shown) [Example 2-297]: 100%.
As to `CCSCc1c(C(F)(F)F)ccc(C(=O)Nc2nnnn2CC)c1Cl` [Example 2-299], the “herbicidal activity ECHCG” value is given as 100%.
On the same count and under the same terms, the figure for `Cn1nnnc1NC(=O)c1ccc(C(F)(F)F)c(CSC2CC2)c1Cl` [Example 1-302] is 100%; for `CCSCc1c(C(F)F)ccc(C(=O)Nc2nnnn2CC)c1Cl` [Example 2-323] it is 100%.
Turning to `CSCc1c(I)ccc(C(=O)Nc2nnnn2C)c1Cl` [Example 1-362], the “herbicidal activity ECHCG” value was 100%.

The next assay deals with Setaria viridis. As to the kind of experiment: Pre-emergence herbicidal action, SETVI. Type of assay: in vivo. Also noted: key to Herbicidal action against SETVI: % activity: 100 = plants have died, 0 = like control plants. The settings on record: comparative experiment, 20 g of a.i./ha. Put shortly:
as §2
Consider `CSCc1c(I)ccc(C(=O)Nc2nnnn2C)c1Cl` [Example 1-362], for which the “Herbicidal action against SETVI” value is 90.

The assay is the same for the next values; noted with them: dosage 320 g/ha.
With `CCn1nnnc1NC(=O)c1ccc(S(C)(=O)=O)c(CS(C)(=O)=O)c1Cl` [Example 2-280], the “herbicidal action SETVI” value is listed as 90%.

The assay is the same for the next values; noted with them: dosage 320 g/ha, scored visually after 3 weeks vs untreated controls (100% = plants have died).
With `CSc1c(C(=O)Nc2nnnn2C)ccc(C(F)(F)F)c1C[S+](C)[O-]` (stereo not shown) [Example 1-162], the “herbicidal activity SETVI” value is 100%.
`CCn1nnnc1NC(=O)c1ccc(C(F)F)c(CS(C)(=O)=O)c1Cl` [Example 2-322]: the “herbicidal activity SETVI” value was 100%.
Still for that read-out and setting: next, `CCn1nnnc1NC(=O)c1ccc(C(F)(F)F)c(CSC)c1Cl` [Example 2-296]: 100%.
In the case of `COCCSCc1c(C(F)(F)F)ccc(C(=O)Nc2nnnn2C)c1Cl` [Example 1-305], the “herbicidal activity SETVI” value came out at 100%.
For the compound `CCn1nnnc1NC(=O)c1ccc(C(F)(F)F)c(CS(=O)(=O)CC)c1Br` [Example 2-385], the “herbicidal activity SETVI” value is on record as 100%.
Still for that read-out and setting: next, `Cn1nnnc1NC(=O)c1ccc(C(F)(F)F)c(CSCC2CC2)c1Cl` [Example 1-314]: 100%; `CCn1nnnc1NC(=O)c1ccc(C(F)(F)F)c(C[S+](C)[O-])c1Cl` (stereo not shown) [Example 2-297]: 100%.
`CCSCc1c(C(F)(F)F)ccc(C(=O)Nc2nnnn2CC)c1Cl` [Example 2-299]: the “herbicidal activity SETVI” value is given as 100%.
`Cn1nnnc1NC(=O)c1ccc(C(F)(F)F)c(CSC2CC2)c1Cl` [Example 1-302]: the “herbicidal activity SETVI” value came to 100%.
Regarding `CCSCc1c(C(F)F)ccc(C(=O)Nc2nnnn2CC)c1Cl` [Example 2-323], the “herbicidal activity SETVI” value came to 100%.
For `CSCc1c(I)ccc(C(=O)Nc2nnnn2C)c1Cl` [Example 1-362], the “herbicidal activity SETVI” value came out at 100%.
